From ChEMBL document CHEMBL5380876, “Non-fused imidazole-biphenyl analogs repress triple-negative breast cancer growth by mainly stabilizing the c-MYC G-quadruplex via a multi-site binding mode” (Bioorg Med Chem, 2023)
Calls of active or inactive are those of the source. The rule behind the calls is not given here.

What was measured:
[1] = tested on: Quadruplex DNA; test: Stabilization of c-Myc G4 quadruplex DNA (unknown origin) assessed as temperature at which 50% protein unfold by circular dichroism melting assay; format: nucleic-acid assay
[2] = tested on: MDA-MB-231; test: Induction of cell cycle arrest in human MDA-MB-231 cells assessed as downregulation of Cdc2 expression at 1 to 4 uM incubated for 24 hrs by Western blot analysis; format: functional, cell-based; conditions: dose 1-4 µM
[3] = tested on: MDA-MB-231; test: Induction of apoptosis in human MDA-MB-231 cells assessed as PARP cleavage at 1 to 4 uM incubated for 24 hrs by Western blot analysis; format: functional, cell-based; conditions: dose 1-4 µM
[4] = tested on: MDA-MB-231; test: Inhibition of cell migration in human MDA-MB-231 cells assessed as reduction in migration at 1 to 4 uM measured after 24 hrs by transwell migration assay; format: functional, cell-based; conditions: dose 1-4 µM
[5] = tested on: MDA-MB-231; test: Antitumor activity against human MDA-MB-231 cells xenografted in BALB/c mouse assessed as reduction in c-MYC expression at 5 mg/kg, ip administered every other day for 20 days and measured every 4 days by immunohistochemistry analysis; format: functional, organism-based; conditions: time 20.0 day
[6] = tested on: Quadruplex DNA; test: Stabilization of G4 quadruplex telomeric22 DNA (unknown origin) assessed as change in melting temperature by circular dichroism melting assay
[7] = Cytotoxicity against human MCF-10A cells assessed as inhibition of cell proliferation by CCK-8 assay; format: toxicity, cell-based
[8] = tested on: MDA-MB-231; test: Induction of autophagy in human MDA-MB-231 cells assessed as aggregation of p62 protein expression level at 1 to 4 uM incubated for 24 hrs by Western blot analysis; format: functional, cell-based; conditions: dose 1-4 µM
[9] = Cytotoxicity against human MCF-10A cells assessed as reduction in cell viability by CCK8 assay; format: toxicity, cell-based
[10] = tested on: MDA-MB-231; test: Induction of apoptosis in human MDA-MB-231 cells assessed as increase in late apoptotic cells at 1 to 4 uM incubated for 24 hrs by Annexin-V FITC/PI double staining based flow cytometry analysis; format: functional, cell-based; conditions: dose 1-4 µM
[11] = tested on: MDA-MB-231; test: Cytotoxicity against human MDA-MB-231 cells assessed as inhibition of cell growth at 0 to 20 uM incubated for 24 hrs by CCK-8 assay; format: functional, cell-based; conditions: MDA-MB-231, 24 h
[12] = tested on: MDA-MB-231; test: Induction of apoptosis in human MDA-MB-231 cells assessed as caspase-3 cleavage at 1 to 4 uM incubated for 24 hrs by Western blot analysis; format: functional, cell-based; conditions: dose 1-4 µM
[13] = tested on: HEK293; test: Downregulation of c-MYC expression in human HEK293 cells transfected with psiCHECK2 luciferase plasmid at 1 to 4 uM incubated for 24 hrs by dual luciferase reporter assay; format: functional, cell-based; conditions: dose 1-4 µM
[14] = tested on: Quadruplex DNA; test: Stabilization of c-MYC G4 quadruplex DNA (unknown origin) assessed as change in temperature incubated for 2 hrs in presence of telomer by FRET assay; format: nucleic-acid assay
[15] = Toxicity in BALB/c mouse xenografted with human MDA-MB-231 cells assessed as effect on kidney at 5 mg/kg, ip administered every other day for 20 days and measured every 4 days; format: organism-based; conditions: in vivo, 480 h, time 20 day
[16] = tested on: MDA-MB-231; test: Induction of cell cycle arrest in human MDA-MB-231 cells assessed as accumulation of cells at G2/M phase at 2 uM incubated for 24 hrs by propidium iodide staining based flow cytometry analysis (reference value: 17.58%); format: functional
[17] = tested on: A549; test: Cytotoxicity against human A549 cells assessed as reduction in cell viability by CCK8 assay; format: functional, cell-based
[18] = Toxicity in BALB/c mouse xenografted with human MDA-MB-231 cells assessed as distress at 5 mg/kg, ip administered every other day for 20 days and measured every 4 days; format: organism-based; conditions: in vivo, 480 h, time 20 day
[19] = Toxicity in BALB/c mouse xenografted with human MDA-MB-231 cells assessed as effect on heart at 5 mg/kg, ip administered every other day for 20 days and measured every 4 days; format: organism-based; conditions: in vivo, 480 h, time 20 day
[20] = Toxicity in BALB/c mouse xenografted with human MDA-MB-231 cells assessed as effect on liver at 5 mg/kg, ip administered every other day for 20 days and measured every 4 days; format: organism-based; conditions: in vivo, 480 h, time 20 day
[21] = tested on: HCC1806; test: Cytotoxicity against human HCC1806 cells assessed as reduction in cell viability by CCK8 assay; format: functional, cell-based
[22] = molecular target: Quadruplex DNA; test: Binding affinity to c-MYC G4 quadraplex DNA (unknown origin) assessed as dissociation constant by fluorescence titration based analysis; format: nucleic-acid assay
[23] = tested on: MDA-MB-231; test: Induction of cell cycle arrest in human MDA-MB-231 cells assessed as accumulation of cells at sub-G1 phase at 2 uM incubated for 24 hrs by propidium iodide staining based flow cytometry analysis (reference value: 0.57%); format: functional
[24] = tested on: MDA-MB-231; test: Induction of apoptosis in human MDA-MB-231 cells assessed as decrease in necrotic cells at 1 to 4 uM incubated for 24 hrs by Annexin-V FITC/PI double staining based flow cytometric analysis; format: functional, cell-based; conditions: dose 1-4 µM
[25] = tested on: MDA-MB-231; test: Induction of cell cycle arrest in human MDA-MB-231 cells assessed as accumulation of cells at S phase at 1 uM incubated for 24 hrs by propidium iodide staining based flow cytometry analysis (reference value: 15.50%); format: functional
[26] = Toxicity in BALB/c mouse xenografted with human MDA-MB-231 cells assessed as effect on spleen at 5 mg/kg, ip administered every other day for 20 days and measured every 4 days; format: organism-based; conditions: in vivo, 480 h, time 20 day
[27] = tested on: MDA-MB-231; test: Upregulation of phosphorylated ATM in human MDA-MB-231 cells at 1 to 4 uM measured after 24 hrs by Western blot analysis; format: functional, cell-based; conditions: dose 1-4 µM
[28] = tested on: MDA-MB-231; test: Induction of autophagy in human MDA-MB-231 cells assessed as increase in fluorescence intensity of LC3B in cytoplasm at 4 uM measured after 24 hrs by immunofluorescence based analysis; format: functional, cell-based
[29] = tested on: MDA-MB-231; test: Induction of autophagy in human MDA-MB-231 cells assessed as conversion of LC3B-I to LC3B-II at 1 to 4 uM incubated for 24 hrs by Western blot analysis; format: functional, cell-based; conditions: dose 1-4 µM
[30] = tested on: dsDNA; test: Stabilization of duplex DNA (unknown origin) assessed as change in melting temperature by circular dichroism melting assay
[31] = tested on: MDA-MB-231; test: Antitumor activity against human MDA-MB-231 cells xenografted in BALB/c nude mouse assessed as reduction in tumor weight at 5 mg/kg, ip administered every other day for 20 days and measured every 4 days; format: functional, organism-based; conditions: time 20.0 day
[32] = tested on: MDA-MB-231; test: Downregulation of c-MYC expression in human MDA-MB-231 cells measured after 24 hrs by RT-PCR analysis; format: functional, cell-based; conditions: dose 1-4 µM
[33] = tested on: KYSE-30; test: Cytotoxicity against human KYSE-30 cells assessed as reduction in cell viability by CCK8 assay; format: functional, cell-based
[34] = tested on: MDA-MB-231; test: Induction of apoptosis in human MDA-MB-231 cells assessed as caspase-9 cleavage at 1 to 4 uM incubated for 24 hrs by Western blot analysis; format: functional, cell-based; conditions: dose 1-4 µM
[35] = tested on: MDA-MB-231; test: Cytotoxicity against human MDA-MB-231 cells assessed as inhibition of cell growth at 0 to 20 uM incubated for 72 hrs by CCK-8 assay; format: functional, cell-based; conditions: MDA-MB-231, 72 h
[36] = Toxicity in BALB/c mouse xenografted with human MDA-MB-231 cells assessed as discomfort at 5 mg/kg, ip administered every other day for 20 days and measured every 4 days; format: organism-based; conditions: in vivo, 480 h, time 20 day
[37] = tested on: MDA-MB-231; test: Induction of cell cycle arrest in human MDA-MB-231 cells assessed as accumulation of cells at sub-G1 phase at 1 uM incubated for 24 hrs by propidium iodide staining based flow cytometry analysis (reference value: 0.57%); format: functional

- T [1]: 34.6 °C
- ΔTm [6]: 0 °C
- Activity [14]: Active
- Kd [22]: 2.7 µM
- ΔTm [30]: 0 °C
SMILES: CN1CCN(c2ccc(-c3nc(-c4ccc(-c5ccc(C(F)(F)F)cc5)cc4)[nH]c3-c3ccc(N4CCN(C)CC4)cc3)cc2)CC1
- Activity [2]: Active
- Activity [3]: Active
- inhibition [4]: Active
- Activity [5]: Active
- IC50 [7]: 8.7 µM
- Activity [8]: Active
- IC50 [9]: 8.77 µM
- Activity [10]: Active
- IC50 [11]: 1.84 µM
- Activity [12]: Active
- Activity [13]: Active
- Activity [15]: Non-Toxic
- Activity [16]: 11.35%
- IC50 [17]: 1.26 µM
- Activity [18]: Non-Toxic
- Activity [19]: Non-Toxic
- Activity [20]: Non-Toxic
- IC50 [21]: 1.49 µM
- Activity [23]: 0.68%
- Activity [24]: inactive
- Activity [25]: 11.14%
- Activity [26]: Non-Toxic
- Activity [27]: Active
- Activity [28]: Active
- Activity [29]: Active
- Activity [31]: Active
- Activity [32]: Dose-Dependent Effect
- IC50 [33]: 1.31 µM
- Activity [34]: Active
- IC50 [35]: 0.66 µM
- Activity [36]: Non-Toxic
- Activity [37]: 0.66%
